Legend:
NF-κB pathway = assay: AD037 mRNA by quantitative PCR in THP-1 monocytes, LPS with dexamethasone or IKK-2 inhibitor (FIG. 80); type: cell-based, human; conditions: LPS, 2, 4 and 8 hours post stimulation
Protocol: The figure illustrates the basal AD037 expression in THP-1 monocytes in response to LPS (“LPS”), LPS and the glucocorticoid dexamethasone (“LP/Dex”), or LPS and the IKK-2 inhibitor BMS-345541 (“LPS/345541”), for 2 hours, 4 hours, and 8 afters post stimulation. Unstimulated THP-1 moncytes served as a control. […] Expression data was obtained by measuring the steady state AD037 mRNA levels by quantitative PCR using the PCR primer pair provided as SEQ ID NO:162 and 163 as described herein.
Moreover, in an effort to further confirm the NF-κB-dependent expression of AD037, two approaches were investigated. In the first approach, additional inhibitors of the NF-κB pathway were used to assess their affect on AD037 expression. Although it has other transcriptional effects, dexamethasone inhibits NF-κB activity via glucocorticoid receptor-mediated transrepression (Reichardt et al. (2001) EMBO J. 20:7168-7173). The compound 4(2′-aminoethyl)amino-1,8-dimethylimidazo(1,2-a) quinoxaline, is a selective IKK-2 inhibitor (International Publication No. WO 02/60386, Published Oct. 10, 2002; Burke et al. (2003) J. Biol. Chem. 278:1450-1456).

AD037 mRNA [1] = assay: AD037 mRNA by RT-PCR in stimulated THP-1 human monocyte line; type: cell-based; conditions: THP-1 cells stimulated for 8, 24, or 48 hours; 100 ng/ml LPS, 10 ng/ml TNFα or 100 units/ml IFN-γ; FIG. 18
Protocol: Nonetheless, the following methods were used to assess the expression profile of the NFkB assocaited polypeptides of the present invention. Briefly, poly (A)^+ mRNA was isolated from THP-1 cells that were either unstimulated, or stimulated with 100 ng/ml LPS for two hours in the presence and absence of BMS-205820 (2 uM) using the Fast Track isolation kit (Invitrogen, Carlsbad, Calif.) according to the manufacturer's instructions. RNA quality and quantity were evaluated using UV spectrometry and capillary electrophoresis with the RNA 6000 Assay (Agilent). […]
PCR reactions were performed in a total volume of 40 ul containing master mix (SYBR Green I dye, 50 mM Tris-Cl pH 8.3, 75 mM KCl, DMSO, Rox reference dye, 5 mM MgCl2, 2 mM dNTP, I unit Platinum Taq High Fidelity enzyme), 0.5 uM each of forward and reverse gene-specific primers, and cDNA (8 ul of a 1:36 dilution of the first strand reaction mix). […] The data were analyzed using the TaqMan 5700 software with the threshold value set to 0.5. […]
The THP-1 human monocyte line was stimulated with 100 ng/ml LPS, 10 ng/ml TNFα (Peprotech, Rocky Hill, N.J.), or 100 units/ml interferon-γ (IFN-γ, Peprotech) for either 8, 24, or 48 hours. […] The levels of each NFkB associated polypeptide mRNA may be measured by RT-PCR analysis using the primers described herein for each gene. […]

AD037 mRNA [2] = assay: AD037 mRNA by RT-PCR in stimulated synovial fibroblasts; type: cell-based; conditions: synovial fibroblasts, 1, 6, or 24 hours; TNFα, IL-1α, IL-17 10 ng/ml, IL-17B-Ig fusion protein 5 ng/ml; FIG. 20
Protocol: Nonetheless, the following methods were used to assess the expression profile of the NFkB assocaited polypeptides of the present invention. Briefly, poly (A)^+ mRNA was isolated from THP-1 cells that were either unstimulated, or stimulated with 100 ng/ml LPS for two hours in the presence and absence of BMS-205820 (2 uM) using the Fast Track isolation kit (Invitrogen, Carlsbad, Calif.) according to the manufacturer's instructions. RNA quality and quantity were evaluated using UV spectrometry and capillary electrophoresis with the RNA 6000 Assay (Agilent). Five-hundred nanograms of polyA RNA was used for first-strand cDNA synthesis using the SuperScriptTm First-Strand Synthesis System for RT-PCR (Invitrogen) according to the manufacturer's instructions with 250 ng of random hexamers.
PCR reactions were performed in a total volume of 40 ul containing master mix (SYBR Green I dye, 50 mM Tris-Cl pH 8.3, 75 mM KCl, DMSO, Rox reference dye, 5 mM MgCl2, 2 mM dNTP, I unit Platinum Taq High Fidelity enzyme), 0.5 uM each of forward and reverse gene-specific primers, and cDNA (8 ul of a 1:36 dilution of the first strand reaction mix). For tissue expression analyses, PCR reactions included 2 ul of cDNA derived from the Human Multiple Tissue cDNA panel I and Human Immune System MTC Panel (Clontech, Palo Alto, Calif.). The amplification program consisted of a 10 minute incubation at 95° C., followed by 40 cycles of incubations at 95° C. for 15 seconds, 60° C. for 1 minute. The amplification was followed by melting curve analysis at 60° C. to determine the specificity of the amplification reaction. A negative control without cDNA template was run to assess the overall specificity. The data were analyzed using the TaqMan 5700 software with the threshold value set to 0.5. The message levels of GAPDH were used to normalize the amounts of cDNA for each reaction.
Synovial fibroblasts were obtained from Cell Applications, INC. […] The levels of each NFkB associated polypeptide mRNA may be measured by RT-PCR analysis using the primers described herein for each gene. […]

## Cc1ccc2nc(NCCN)c3ncc(C)n3c2c1 [BMS-345541, 4(2′-aminoethyl)amino-1,8-dimethylimidazo(1,2-a) quinoxaline]
NF-κB pathway
  LPS-induced AD037 expression (mRNA): reduced to control levels
NF-κB pathway; listed as 4(2′-aminoethyl)amino-1,8-dimethylimidazo(1,2-a) quinoxaline
  LPS-induced AD037 expression (mRNA): significantly inhibited

## IFN-γ: interferon-γ (Peprotech), fails to activate the NF-KB pathway
AD037 mRNA [1]
  AD037 mRNA level (RT-PCR, normalized to GAPDH): Little upregulation

## IL-17: IL-17 (R&D Systems) cytokine stimulus
AD037 mRNA [2]
  AD037 mRNA level (RT-PCR, normalized to GAPDH): No upregulation

## TNFα
AD037 mRNA [1]
  AD037 mRNA level (RT-PCR, normalized to GAPDH): upregulated
AD037 mRNA [2]
  AD037 mRNA level (RT-PCR, normalized to GAPDH): No upregulation

B1: IL-1α: IL-1α (Peprotech) cytokine stimulus (protein, UniProt P01583 113-271, looked up)
Interleukin-1 alpha: SAPFSFLSNVKYNFMRIIKYEFILNDALNQSIIRANDQYLTAAALHNLDEAVKFDMGAYKSSKDDAKITVILRISKTQLYVTAQDEDQPVLLKEMPEIPKTITGSETNLLFFWETHGTKNYFTSVAHPNLFIATKQDYWVCLAGGPPSITDFQILENQA
AD037 mRNA [2]
  AD037 mRNA level (RT-PCR, normalized to GAPDH): No upregulation

Source: patent US20040086896A1, “Polynucleotides and polypeptides associated with the NF-kB pathway” (priority 2001, published 2004)
